The test system of experiment [1] is BCL-2 G101V knock-in cell line H96 (derive from RS4;11). In words: Bcl 2-G101V Knock-In RS4;11 Cell Proliferation Assay. The class given is cell-based. Conditions: Homo sapiens, RS4-11, 48 h, RS4;11 Bcl-2 G101V knock-in clone H96, 48 hrs, CellTiter-GLO, read-out: Cellular proliferation assay (IC50, nM) RS4. Summed up:
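H96, a CRISPR-generated RS4;11 clone carrying BCL2-G101V knock-in (WES/RNA-seq validated), seeded 50,000 per well and exposed 48 h at 37 °C to 10-point dilutions topping at 1 or 10 μM. Viability by CellTiter-Glo luminescence; mean IC50.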
(Cellular ATP, detected with luciferase, serves as a proxy for viable cell number.)

The subject of experiment [2] is RS4;11 (BCL-2 dependent acute lymphoblastic leukemia cell line). In words: RS4;11 Cell Proliferation Assay. The class given is cell-based. Particulars: Homo sapiens, RS4;11 cells, read-out: Cellular proliferation assay (IC50, nM) RS4. Summed up: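 RS4;11 cells, 50,000 per well in RPMI-1640 with 10% FBS, treated 48 h at 37 °C with a 10-point dilution series topping at 1 μM. Viability read by CellTiter-Glo ATP luminescence; mean IC50 reported.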

For experiment [3], the system named is recombinant human Bcl-2-G101V protein. Put plainly: Bcl-2-G101V TR-FRET Assay. It is filed as binding. Particulars: for Ratio of Bcl-2 G101V/WT: ratio of biochemical IC50 Bcl-2 G101V / Bcl-2 WT; for ratio of IC50 of Bcl-2 G101V/Bcl-2 wt, compared with Example F132b in WO2019210828 and ABT-199 (venetoclax): comparison in words. Summed up: (§1)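 Compounds were titrated at increasing concentrations against the Bcl-2-G101V–ligand interaction. TR-FRET signals were then read (ex 337 nm; em 490/520 nm). Percent inhibition was derived from the 490-to-520 nm ratio, and IC50 from a four-parameter logistic equation.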
On the technique in general: TR-FRET usually uses a lanthanide donor and a delayed reading to cut background.

Experiment [4] has as its target recombinant human Bcl-2-G101V protein (Homo sapiens (Human), UniProt P10415, G101V). Put plainly: Bcl-2-G101V TR-FRET Assay. It is filed as binding. Conditions: Bcl-2 G101V mutant, TR-FRET; read-out: Biochemical assay (IC50, nM) Bcl-2 G101V. Summed up: as §1

With `COc1ccc(CN2CCN(C3CC4(CCN(c5ccc(C(=O)NS(=O)(=O)c6ccc(NCC7(F)CCOCC7)c([N+](=O)[O-])c6)c(Oc6cnc7[nH]ccc7c6)c5)CC4)C3)[C@H](c3ccccc3C(C)C)C2)cc1` (single isomer, unassigned) [Example 32, (R or S)-2-((1H-pyrrolo[2,3-b]pyridin-5-yl)oxy)-N-((4-(((4-fluorotetrahydro-2H-pyran-4-yl)methyl)amino)-3-nitrophenyl)sulfonyl)-4-(2-(2-(2-isopropylphenyl)-4-(4-methoxybenzyl)piperazin-1-yl)-7-azaspiro[3.5]nonan-7-yl)benzamide], the values for the IC50 in experiment [1], in experiment [2] and in experiment [4] were 0.96 nM, 0.18 nM and 0.28 nM, respectively. Moreover, in experiment [3], the “Ratio of Bcl-2 G101V/WT” value worked out at 2.9.

For the compound `COc1ccc(CN2CCN(C3CC4(CCN(c5ccc(C(=O)NS(=O)(=O)c6ccc(NC[C@H]7CC[C@](C)(O)CC7)c([N+](=O)[O-])c6)c(Oc6cnc7[nH]ccc7c6)c5)CC4)C3)[C@H](c3ccccc3C(C)C)C2)cc1OC` [Example 81a, 2-((1H-pyrrolo[2,3-b]pyridin-5-yl)oxy)-4-(2-((R)-4-(3,4-dimethoxybenzyl)-2-(2-isopropylphenyl)piperazin-1-yl)-7-azaspiro[3.5]nonan-7-yl)-N-((4-((((1r,4r)-4-hydroxy-4-methylcyclohexyl)methyl)amino)-3-nitrophenyl)sulfonyl)benzamide], the IC50 in experiment [1] is 0.48 nM; in experiment [2], 0.146 nM; in experiment [4], 0.075 nM. The “Ratio of Bcl-2 G101V/WT” value in experiment [3] came out at 2.0.

Turning to `COc1ccc(CN2CCN(C3CC4(CCN(c5ccc(C(=O)NS(=O)(=O)c6ccc(NC[C@H]7CC[C@](C)(O)CC7)c([N+](=O)[O-])c6)c(Oc6cnc7[nH]ccc7c6)c5)CC4)C3)C(c3ccccc3C(C)C)C2)cn1` (stereo partly shown) [Example 72, 2-((1H-pyrrolo[2,3-b]pyridin-5-yl)oxy)-N-((4-((((1r,4r)-4-hydroxy-4-methylcyclohexyl)methyl)amino)-3-nitrophenyl)sulfonyl)-4-(2-(2-(2-isopropylphenyl)-4-((6-methoxypyridin-3-yl)methyl)piperazin-1-yl)-7-azaspiro[3.5]nonan-7-yl)benzamide], the IC50 amounted to 1.7 nM in experiment [1], 0.45 nM in experiment [2] and 0.2 nM in experiment [4]. Further, the “Ratio of Bcl-2 G101V/WT” value in experiment [3] is on record as 4.

`CC(C)c1ccccc1C1CN(Cc2ccc(F)c(F)c2)CCN1C1CC2(CCN(c3ccc(C(=O)NS(=O)(=O)c4ccc(NC[C@H]5CC[C@](C)(O)CC5)c([N+](=O)[O-])c4)c(Oc4cnc5[nH]ccc5c4)c3)CC2)C1` (stereo partly shown) [Example 52, 2-((1H-pyrrolo[2,3-b]pyridin-5-yl)oxy)-4-(2-(4-(3,4-difluorobenzyl)-2-(2-isopropylphenyl)piperazin-1-yl)-7-azaspiro[3.5]nonan-7-yl)-N-((4-((((1r,4r)-4-hydroxy-4-methylcyclohexyl)methyl)amino)-3-nitrophenyl)sulfonyl)benzamide]: the IC50 in experiment [1] was determined as 2.7 nM; in experiment [2], 0.36 nM; in experiment [4] it was 0.73 nM. For the same compound, the “Ratio of Bcl-2 G101V/WT” value in experiment [3] came out at 3.0.

Regarding `COc1ccc(CN2CCN(C3CC4(C3)CN(c3ccc(C(=O)NS(=O)(=O)c5ccc(NC[C@H]6CC[C@](C)(O)CC6)c([N+](=O)[O-])c5)c(Oc5cnc6[nH]cc(F)c6c5)c3)C4)[C@H](c3ccccc3C(C)C)C2)cc1OC` [Example 141a, 4-(6-((R)-4-(3,4-dimethoxybenzyl)-2-(2-isopropylphenyl)piperazin-1-yl)-2-azaspiro[3.3]heptan-2-yl)-2-((3-fluoro-1H-pyrrolo[2,3-b]pyridin-5-yl)oxy)-N-((4-((((1r,4r)-4-hydroxy-4-methylcyclohexyl)methyl)amino)-3-nitrophenyl)sulfonyl)benzamide], the IC50 in experiment [1] amounted to 0.268 nM; in experiment [2], 0.166 nM; in experiment [4], 0.13 nM. The “ratio of IC50 of Bcl-2 G101V/Bcl-2 wt, compared with Example F132b in WO2019210828 and ABT-199 (venetoclax)” value (“ratio of IC50 of Bcl-2 G101V/Bcl-2 wt” for short) in experiment [3] was “much lower”. Moreover, in experiment [3], the “Ratio of Bcl-2 G101V/WT” value is listed as 2.5.

On to `COc1ccc(CN2CCN(C3CC4(C3)CN(c3ccc(C(=O)NS(=O)(=O)c5ccc(NC[C@H]6CC[C@](C)(O)CC6)c([N+](=O)[O-])c5)c(Oc5cnc6[nH]ccc6c5)c3)C4)[C@H](c3ccccc3C(C)C)C2)cc1OC` [Example 145, 2-((1H-pyrrolo[2,3-b]pyridin-5-yl)oxy)-4-(6-((R)-4-(3,4-dimethoxybenzyl)-2-(2-isopropylphenyl)piperazin-1-yl)-2-azaspiro[3.3]heptan-2-yl)-N-((4-((((1r,4r)-4-hydroxy-4-methylcyclohexyl)methyl)amino)-3-nitrophenyl)sulfonyl)benzamide], for which the IC50 in experiment [1] was found to be 0.23 nM; in experiment [2] it was 0.104 nM; in experiment [4] it was 0.084 nM. Besides, the “ratio of IC50 of Bcl-2 G101V/Bcl-2 wt” value in experiment [3] is reported as “much lower”. The “Ratio of Bcl-2 G101V/WT” value in experiment [3] turned out to be 3.

For `COc1ccc(CN2CCN(C3CC4(CCN(c5ccc(C(=O)NS(=O)(=O)c6ccc(NC[C@H]7CC[C@](C)(O)CC7)c([N+](=O)[O-])c6)c(Oc6cnc7[nH]cc(F)c7c6)c5)CC4)C3)[C@H](c3ccccc3C(C)C)C2)cc1OC` [Example 127, 4-(2-((R)-4-(3,4-dimethoxybenzyl)-2-(2-isopropylphenyl)piperazin-1-yl)-7-azaspiro[3.5]nonan-7-yl)-2-((3-fluoro-1H-pyrrolo[2,3-b]pyridin-5-yl)oxy)-N-((4-((((1r,4r)-4-hydroxy-4-methylcyclohexyl)methyl)amino)-3-nitrophenyl)sulfonyl)benzamide], the results for the IC50 in experiment [1], in experiment [2] and in experiment [4] were 0.367 nM, 0.167 nM and 0.13 nM, respectively. Besides, the “ratio of IC50 of Bcl-2 G101V/Bcl-2 wt” value in experiment [3] was “much lower”. In addition, the “Ratio of Bcl-2 G101V/WT” value in experiment [3] is listed as 1.8.
